How the values were obtained:
recombinant human KIF18A = target: T1, recombinant human KIF18A (Homo sapiens, UniProt Q8NI77); assay: Inhibition of KIF18A enzyme activity (ADP-Glo assay); format: biochemical; conditions: recombinant human KIF18A 100 nM, ATP 60 µM, tubulin, paclitaxel; read-out: IC50
T1 construct: purchased GenScript

OVCAR-3 cells = assay: Inhibition of OVCAR-3 cell proliferation (CellTiter-Glo cell viability); format: cell-based; conditions: Homo sapiens; OVCAR-3 cells (TP53 R248Q mutation), 72 hours culture with compound; read-out: IC50
Method in brief: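 OVCAR-3 cells (TP53 R248Q) in RPMI 1640 with 10% FBS were seeded at 1000 cells/well, grown overnight, then exposed to compound (final 1000 nM–0.015 nM) for 72 h at 37°C, 5% CO2. Viability was read by CellTiter-Glo luminescence. IC50 came from nonlinear regression of inhibition relative to 0.3% DMSO control.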

T1 sequence (Q8NI77 whole entry): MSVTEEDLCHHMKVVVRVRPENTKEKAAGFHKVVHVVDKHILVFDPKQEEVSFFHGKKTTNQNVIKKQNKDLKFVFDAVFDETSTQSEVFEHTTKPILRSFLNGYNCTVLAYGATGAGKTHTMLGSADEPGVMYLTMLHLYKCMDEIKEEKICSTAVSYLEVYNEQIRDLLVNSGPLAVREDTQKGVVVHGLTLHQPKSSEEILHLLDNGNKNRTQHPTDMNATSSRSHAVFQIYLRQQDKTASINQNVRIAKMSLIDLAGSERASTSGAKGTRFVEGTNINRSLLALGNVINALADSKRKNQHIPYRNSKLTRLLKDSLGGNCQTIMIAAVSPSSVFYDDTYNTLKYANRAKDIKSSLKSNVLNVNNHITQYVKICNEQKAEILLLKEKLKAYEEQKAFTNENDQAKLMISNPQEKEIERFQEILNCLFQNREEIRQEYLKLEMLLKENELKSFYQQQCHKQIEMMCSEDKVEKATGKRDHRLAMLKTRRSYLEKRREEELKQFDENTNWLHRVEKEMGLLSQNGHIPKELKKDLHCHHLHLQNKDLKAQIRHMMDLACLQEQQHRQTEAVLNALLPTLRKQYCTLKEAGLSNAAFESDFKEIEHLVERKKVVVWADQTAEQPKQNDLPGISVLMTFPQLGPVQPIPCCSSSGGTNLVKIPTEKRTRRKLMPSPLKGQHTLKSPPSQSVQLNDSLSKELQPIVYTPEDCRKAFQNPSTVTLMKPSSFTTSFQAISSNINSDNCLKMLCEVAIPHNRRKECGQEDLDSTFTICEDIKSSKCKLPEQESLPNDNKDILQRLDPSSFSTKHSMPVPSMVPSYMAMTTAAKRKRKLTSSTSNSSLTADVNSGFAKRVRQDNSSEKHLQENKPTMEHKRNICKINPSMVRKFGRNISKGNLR
T1 sequence (P68363 whole entry partner): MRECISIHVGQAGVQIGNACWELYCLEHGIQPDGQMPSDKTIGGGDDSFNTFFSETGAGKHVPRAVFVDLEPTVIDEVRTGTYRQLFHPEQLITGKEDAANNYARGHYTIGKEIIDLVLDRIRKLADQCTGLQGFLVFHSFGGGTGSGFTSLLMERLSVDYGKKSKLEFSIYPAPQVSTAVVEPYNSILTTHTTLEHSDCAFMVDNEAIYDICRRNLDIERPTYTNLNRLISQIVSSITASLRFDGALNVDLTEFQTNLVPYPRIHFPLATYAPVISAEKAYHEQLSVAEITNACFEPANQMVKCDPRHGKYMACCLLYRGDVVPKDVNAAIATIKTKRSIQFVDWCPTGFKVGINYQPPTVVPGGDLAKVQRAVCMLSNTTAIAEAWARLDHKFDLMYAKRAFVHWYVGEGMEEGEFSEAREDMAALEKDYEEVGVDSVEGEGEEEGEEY
T1 sequence (Q9BVA1 whole entry partner): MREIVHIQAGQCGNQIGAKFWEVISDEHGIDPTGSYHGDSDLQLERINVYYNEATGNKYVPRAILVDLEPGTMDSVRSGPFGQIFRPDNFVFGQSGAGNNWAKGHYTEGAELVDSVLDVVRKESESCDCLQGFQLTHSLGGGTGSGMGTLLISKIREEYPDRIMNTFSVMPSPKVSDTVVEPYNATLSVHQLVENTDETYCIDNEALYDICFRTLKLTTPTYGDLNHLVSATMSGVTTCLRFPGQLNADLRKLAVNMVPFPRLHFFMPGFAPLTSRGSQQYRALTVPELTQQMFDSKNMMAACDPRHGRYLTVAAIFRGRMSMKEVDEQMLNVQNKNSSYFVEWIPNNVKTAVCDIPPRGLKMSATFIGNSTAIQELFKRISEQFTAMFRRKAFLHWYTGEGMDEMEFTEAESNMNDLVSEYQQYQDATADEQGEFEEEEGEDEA

| Structure (SMILES) | IC50 (recombinant human KIF18A) [nM] | IC50 (OVCAR-3 cells) [nM] |
| --- | --- | --- |
| CCS(=O)(=O)Nc1ccc(C(=O)Nc2ccc(-c3ncn(C)n3)c(OCC(F)(F)F)c2)c(N2CCC3(CC2)CC3)c1 [Example 47, 4-(ethylsulfonamido)-N-(4-(1-methyl-1H-1,2,4-triazol-3-yl)-3-(2,2,2-trifluoroethoxy)pheny 1)-2-(6-azaspiro[2.5]octan-6-yl)benzamide] | 155 | 5.8 |
| CCS(=O)(=O)Nc1ccc(C(=O)Nc2ccc(-c3ncccn3)c(OCC(F)(F)F)c2)c(N2CCC3(CC2)CC3)c1 [Example 53, 4-(ethylsulfonamido)-N-(4-(pyrimidin-2-yl)-3-(2,2,2-trifluoroethoxy)phenyl)-2-(6-azaspiro[2.5]octan-6-yl)benzamide] | 142 | 9.5 |
